{"source": "patent US6939879B2", "about": "“Use of R (+)-α-(2,3-dimethoxyphenyl)-1-[2-(4-fluorophenyl)ethyl]-4-piperidinemethanol for the treatment of substance induced insomnia” (Aventis Pharmaceuticals Inc., priority 1998, dated 2005)", "key": {"[1]": {"tested_on": "anaesthetized newborn Sprague Dawley rats", "assay": "Depression of genioglossal EMG induced by L-Tryptophan and Pargyline", "type": "in vivo, rat", "conditions": "for prevention of depression of the amplitude of GG inspiratory discharges by L-Trp+Prg: five newborn rats", "method": "(§1) Intraperitoneal application of L-Tryptophan (10 mg/kg) and Pargyline (50 mg/kg) to anaesthetized newborn rats depressed the amplitude of the inspiratory discharges of the genioglossal muscle and induced obstructive apneas (OA).\n(§2) Experiments were carried out on newborn Sprague Dawley rats from Iffa Credo breeding center. The animals were anaesthetized by intraperitoneal injection of low doses of sodium pentobarbitone (7-10 mg/kg), kept lying (dorsal cubitus) on a warming blanket and were spontaneously ventilating.\n(§3) The EMG activity of the genioglossal muscles and the diaphragm were recorded with fine insulated wires (bipolar recordings) inserted within the muscles, filtered (100-3,000 Hz), amplified (×5-10,000) and integrated (time constant 50 ms). The rib cage movements were recorded via a captor gently touching the lower ribs and/or the abdominal wall. The air flow changes resulting from the respiratory chest movements were recorded via a facial mask and a highly sensitive pressure recorder.\nThen, the animal received an intraperitoneal injection of L-Tryptophan plus Pargyline (“L-Trp+Parg”) 10 mg/kg and 50 mg/kg, respectively, and the changes in EMG amplitudes were checked every 10 minutes and were expressed as % of control values."}, "[2]": {"tested_on": "anaesthetized newborn Sprague Dawley rats", "assay": "Occurrence of obstructive apnea induced by L-Tryptophan and Pargyline injection", "type": "in vivo, rat", "method": "as §1, §2, §3"}, "healthy subjects [3]": {"tested_on": "healthy subjects", "assay": "Single oral dose in healthy subjects, sedation (Example 4A)", "type": "in vivo, human", "method": "Forty percent of the subjects receiving the 20 mg dose (2 out of 5) and sixty percent of the subjects receiving the 10 mg dose (3 out of 5) experienced mild to moderate sedation. […]"}, "healthy subjects [4]": {"tested_on": "healthy subjects", "assay": "Drowsiness in healthy subjects after oral doses (Example 4C)", "type": "in vivo, human", "conditions": "for Drowsiness, % of subjects / Drowsiness, n of subjects: n = 4; for rating of the drowsiness: oral", "from_the_text": "The following data were reported."}, "[5]": {"tested_on": "patients diagnosed with schizophrenia", "assay": "Insomnia and somnolence reported by patients with schizophrenia, twice daily oral dosing (Example 4B)", "type": "in vivo, human", "method": "Forty percent of the subjects receiving the 20 mg dose (2 out of 5) and sixty percent of the subjects receiving the 10 mg dose (3 out of 5) experienced mild to moderate sedation. […] The following data were reported."}, "healthy subjects [6]": {"tested_on": "healthy subjects", "assay": "Drowsiness in healthy subjects, 3-72 mg doses (Example 4D)", "type": "in vivo, human", "experimental": "D) In healthy subjects, the COMPOUND was administered in 3 mg (n=4), 9 mg (n=4), 18 mg (n=4), 36 mg (n=4) and 72 mg (n=4) doses along with the placebo (n=5) wherein “n” is the number of subjects."}, "[7]": {"conditions": "pre-treatment 0.1 mg/kg intraperitoneal, ten newborn rats"}, "[8]": {"conditions": "pre-treatment 0.1 mg/kg, L-Trp+Parg 10 min later"}, "[9]": {"conditions": "pre-treatment 1 mg/kg, ten rats"}}}
{"smiles": "Cn1c(=O)c2[nH]cnc2n(C)c1=O", "note": "[theophylline, reference compound]", "values": [{"measurement": "prevention of depression of the amplitude of GG inspiratory discharges by L-Trp+Prg", "setting": "[1]; pre-treatment 10 mg/kg", "value": "not prevented"}, {"measurement": "prevention of depression of the amplitude of GG inspiratory discharges by L-Trp+Prg", "setting": "[1]; pre-treatment 30 mg/kg", "value": "not prevented"}, {"measurement": "prevention of induction of OAs after L-Trp+Prg injection", "setting": "[2]; pre-treatment 10 mg/kg", "value": "not prevented"}, {"measurement": "prevention of induction of OAs after L-Trp+Prg injection", "setting": "[2]; pre-treatment 30 mg/kg", "value": "not prevented"}]}
{"smiles": "COc1cccc([C@H](O)C2CCN(CCc3ccc(F)cc3)CC2)c1OC", "note": "[COMPOUND, R-(+)-α-(2,3-Dimethoxyphenyl)-1-[2-(4-fluorophenyl)ethyl]-4-piperidinemethanol]", "values": [{"measurement": "subjects who experienced mild to moderate sedation", "setting": "healthy subjects [3]; single 10 mg oral dose", "value": "3 out of 5"}, {"measurement": "subjects who experienced mild to moderate sedation", "setting": "healthy subjects [3]; single 20 mg oral dose", "value": "2 out of 5"}, {"measurement": "Drowsiness, % of subjects", "setting": "healthy subjects [4]; 9 mg oral", "value": 50, "unit": "%"}, {"measurement": "Drowsiness, n of subjects", "setting": "healthy subjects [4]; 9 mg oral", "value": "n = 2"}, {"measurement": "Drowsiness, % of subjects", "setting": "healthy subjects [4]; 18 mg oral", "value": 100, "unit": "%"}, {"measurement": "Drowsiness, n of subjects", "setting": "healthy subjects [4]; 18 mg oral", "value": "n = 4"}, {"measurement": "Drowsiness, % of subjects", "setting": "healthy subjects [4]; 36 mg oral", "value": 100, "unit": "%"}, {"measurement": "Drowsiness, n of subjects", "setting": "healthy subjects [4]; 36 mg oral", "value": "n = 4"}, {"measurement": "rating of the drowsiness", "setting": "healthy subjects [4]; 72 mg and above", "value": "moderate to severe"}, {"measurement": "Drowsiness, % of subjects", "setting": "healthy subjects [4]; 72 mg oral", "value": 75, "unit": "%"}, {"measurement": "Drowsiness, n of subjects", "setting": "healthy subjects [4]; 72 mg oral", "value": "n = 3"}, {"measurement": "Drowsiness, % of subjects", "setting": "healthy subjects [4]; 108 mg oral", "value": 100, "unit": "%"}, {"measurement": "Drowsiness, n of subjects", "setting": "healthy subjects [4]; 108 mg oral", "value": "n = 4"}, {"measurement": "Drowsiness, % of subjects", "setting": "healthy subjects [4]; 138 mg oral", "value": 100, "unit": "%"}, {"measurement": "Drowsiness, n of subjects", "setting": "healthy subjects [4]; 138 mg oral", "value": "n = 4"}, {"measurement": "rating of the drowsiness", "setting": "healthy subjects [4]; doses below 72 mg", "value": "mild or moderate"}, {"measurement": "depression of the mean GG discharge after L-Trp+Parg injection", "setting": "[1]; [7]", "value": "30-50%"}, {"measurement": "prevention of depression of genioglossal (GG) discharge induced by L-Trp+Parg", "setting": "[1]; [7]", "value": "did not prevent"}, {"measurement": "prevention of depression of genioglossal (GG) discharge induced by L-Trp+Parg", "setting": "[1]; pre-treatment 1 mg/kg intraperitoneal, ten newborn rats", "value": "efficient in preventing the GG depression"}, {"measurement": "prevention of depression of genioglossal (GG) discharge induced by L-Trp+Parg", "setting": "[1]; pre-treatment 3 mg/kg intraperitoneal, ten newborn rats", "value": "confirmed the efficiency"}, {"measurement": "Insomnia, % of subjects", "setting": "[5]; 10 mg (5 mg twice daily) oral", "value": "N = 0; 0%"}, {"measurement": "Insomnia, N (number of subjects that reported the effect)", "setting": "[5]; 10 mg (5 mg twice daily) oral", "value": "N = 0; 0%"}, {"measurement": "Somnolence, % of subjects", "setting": "[5]; 10 mg (5 mg twice daily) oral", "value": 20, "unit": "%"}, {"measurement": "Somnolence, N (number of subjects that reported the effect)", "setting": "[5]; 10 mg (5 mg twice daily) oral", "value": 3}, {"measurement": "Insomnia, % of subjects", "setting": "[5]; 20 mg (10 mg twice daily) oral", "value": 21.4, "unit": "%"}, {"measurement": "Insomnia, N (number of subjects that reported the effect)", "setting": "[5]; 20 mg (10 mg twice daily) oral", "value": "N = 3:"}, {"measurement": "Somnolence, % of subjects", "setting": "[5]; 20 mg (10 mg twice daily) oral", "value": 15.4, "unit": "%"}, {"measurement": "Somnolence, N (number of subjects that reported the effect)", "setting": "[5]; 20 mg (10 mg twice daily) oral", "value": "N = 1;"}, {"measurement": "Insomnia, % of subjects", "setting": "[5]; 40 mg (20 mg twice daily) oral", "value": 23.1, "unit": "%"}, {"measurement": "Insomnia, N (number of subjects that reported the effect)", "setting": "[5]; 40 mg (20 mg twice daily) oral", "value": "N = 3;"}, {"measurement": "Somnolence, % of subjects", "setting": "[5]; 40 mg (20 mg twice daily) oral", "value": 15.4, "unit": "%"}, {"measurement": "Somnolence, N (number of subjects that reported the effect)", "setting": "[5]; 40 mg (20 mg twice daily) oral", "value": "N = 2;"}, {"measurement": "drowsiness reported", "setting": "healthy subjects [6]; 3 mg, 9 mg, 18 mg, 36 mg doses (n=4 each)", "value": "Only the group receiving the 72 mg dose reported drowsiness"}, {"measurement": "number of subjects that reported drowsiness", "setting": "healthy subjects [6]; 72 mg dose (n=4)", "value": 3}, {"measurement": "animals that eventually died of respiratory distress", "setting": "[2]; [8]", "value": "4 of the 10"}, {"measurement": "newborn rats in which L-Trp+Parg injection induced OAs", "setting": "[2]; [8]", "value": "9 of 10"}, {"measurement": "newborn rats that did not present short lasting OAs at all", "setting": "[2]; pre-treatment 1 mg/kg", "value": "Five out of ten"}, {"measurement": "newborn rats which displayed OAs", "setting": "[2]; pre-treatment 1 mg/kg", "value": "5 of 10"}, {"measurement": "animals with infrequent OAs (less than 5 short lasting OAs in 60 minutes)", "setting": "[2]; pre-treatment 1 mg/kg, among the 5 of 10 with OAs", "value": 2}, {"measurement": "peak frequency of occurrence of short lasting OAs (mean curve)", "setting": "[2]; pre-treatment 1 mg/kg, between 20-40 min after the injection, significantly less than in the 0.1 mg/kg sample", "value": 4, "unit": "OAs per 10 minute period"}, {"measurement": "newborn rats with long lasting OAs", "setting": "[2]; [9]", "value": "one"}, {"measurement": "survival to L-Trp+Parg injection", "setting": "[2]; [9]", "value": "all animals survived"}, {"measurement": "treated rats with a total of less than 3 short lasting OAs", "setting": "[2]; pre-treatment 3 mg/kg", "value": "3 of 10"}, {"measurement": "treated rats with frequent short lasting OAs", "setting": "[2]; pre-treatment 3 mg/kg", "value": "2 of 10"}, {"measurement": "treated rats with no short lasting OAs", "setting": "[2]; pre-treatment 3 mg/kg", "value": "5 of 10"}, {"measurement": "survival to L-Trp+Parg injection", "setting": "[2]; pre-treatment 3 mg/kg, ten rats", "value": "all survived"}]}
